The results in this text go back to PubChem BioAssay AID330 (DTP/NCI, 2004).

Several values for one entry are separate records, joined by “and”; a condition that tells them apart may be missing. Equal values may be shown once. Toxic doses and inconclusive results are not listed. Square brackets hold non-standard residues; d marks the D form. Peptide text beside a SMILES is read from it. ξ: configuration not given here. ξI = CCC(C)C(N)C(=O)O

The test system of the experiment is P388 leukemia ip, CD2F1 mice, survival T/C. Nature of the experiment: NCI In Vivo Anticancer Drug Screen. Data for tumor model P388 Leukemia (intraperitoneal) in CD2F1 (CDF1) mice. The settings on record: endpoint: median survival time, higher = longer survival. In outline:
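Mice carrying the transplanted tumor received test compound or vehicle. Survival was recorded in each group, and the value is the treated-group measurement divided by that of the vehicle-treated control group.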

[1] abbreviates: dose: 50.0 mg/kg/injection, schedule: Q01DX009 (ip), vehicle: Klucel (hydroxypropylcellulose) (HPC).
The mark [2] stands for this setting: dose: 100.0 mg/kg/injection, schedule: Q01DX009 (ip), vehicle: Klucel (hydroxypropylcellulose) (HPC).
[3] abbreviates: dose: 200.0 mg/kg/injection, schedule: Q01DX009 (ip), vehicle: Klucel (hydroxypropylcellulose) (HPC).
Setting [4] is: dose: 50.0 mg/kg/injection, schedule: Q01DX009 (ip), vehicle: saline with Tween-80.
[5] abbreviates: dose: 100.0 mg/kg/injection, schedule: Q01DX009 (ip), vehicle: saline with Tween-80.
The mark [6] stands for this setting: dose: 200.0 mg/kg/injection, schedule: Q01DX009 (ip), vehicle: saline with Tween-80.
The mark [7] stands for this setting: dose: 60.0 mg/kg/injection, schedule: Q01DX005 (ip), vehicle: saline.
[8] abbreviates: dose: 120.0 mg/kg/injection, schedule: Q01DX005 (ip), vehicle: saline.
The mark [9] stands for this setting: dose: 240.0 mg/kg/injection, schedule: Q01DX005 (ip), vehicle: saline.

`O=C1CSC(=S)N1N1C(=O)CSC1=S`: the T/C under setting [1] is 107 % of control, the T/C under setting [2] was 102 % of control and the T/C under setting [3] was 96 % of control.
As to `O=C(NO)C1NC1C(=O)NO` (configuration not stated), the T/C by setting is: (dose: 25.0 mg/kg/injection, schedule: Q01DX009 (ip), vehicle: water) 96 % of control; (dose: 50.0 mg/kg/injection, schedule: Q01DX009 (ip), vehicle: water) 109 % of control; (dose: 100.0 mg/kg/injection, schedule: Q01DX001 (ip), vehicle: water) 100 % of control; (dose: 100.0 mg/kg/injection, schedule: Q01DX009 (ip), vehicle: water) 111 % of control; (dose: 100.0 mg/kg/injection, schedule: Q04DX003 (ip), vehicle: water) 115 % of control; (dose: 200.0 mg/kg/injection, schedule: Q01DX001 (ip), vehicle: water) 107 % of control. The T/C (dose: 200.0 mg/kg/injection, schedule: Q04DX003 (ip), vehicle: water) is 112 % of control; the T/C (dose: 400.0 mg/kg/injection, schedule: Q01DX001 (ip), vehicle: water) was 100 % of control; the T/C (dose: 400.0 mg/kg/injection, schedule: Q04DX003 (ip), vehicle: water) is 112 % of control; the T/C (dose: 600.0 mg/kg/injection, schedule: Q01DX001 (ip), vehicle: water) is 101 % of control.
As for `Cc1ccc(S(=O)(=O)N(Cl)Cl)cc1`, the T/C (dose: 6.25 mg/kg/injection, schedule: Q01DX009 (ip), vehicle: Klucel (hydroxypropylcellulose) (HPC)) is 111 % of control; the T/C (dose: 12.5 mg/kg/injection, schedule: Q01DX009 (ip), vehicle: Klucel (hydroxypropylcellulose) (HPC)) was 99 % of control; the T/C (dose: 25.0 mg/kg/injection, schedule: Q01DX009 (ip), vehicle: Klucel (hydroxypropylcellulose) (HPC)) is 108 % of control.
Turning to `O=C(Nc1ccc(C(=O)Nc2cccc(C3=NCCN3)c2)cc1)Nc1ccc(C(=O)Nc2cccc(C3=NCCN3)c2)cc1`, the T/C was 108 % of control (dose: 100.0 mg/kg/injection, schedule: Q01DX001 (ip), vehicle: saline); 100 % of control (dose: 200.0 mg/kg/injection, schedule: Q01DX001 (ip), vehicle: saline); 116 % of control (dose: 400.0 mg/kg/injection, schedule: Q01DX001 (ip), vehicle: saline).
Take `COC1=C(OC)C(=O)C(COC2CCCCO2)=CC1=O` (configuration not stated): the T/C reads like this: (dose: 7.5 mg/kg/injection, schedule: Q01DX005 (ip), vehicle: saline with Tween-80) 98 % of control; (dose: 15.0 mg/kg/injection, schedule: Q01DX005 (ip), vehicle: saline with Tween-80) 103 % of control.
In the case of `CC(/C=C/c1ccccc1)=Nc1ccccc1`, the T/C was 109 % of control and 112 % of control under setting [4]; 114 % of control and 123 % of control under setting [5]; 123 % of control under setting [6].
Consider `C[C@]12CC[C@@H]3c4ccc(OC(=O)Cc5ccc(N(CCCl)CCCl)cc5)cc4CC[C@H]3[C@@H]1CC[C@@H]2OC(=O)Cc1ccc(N(CCCl)CCCl)cc1`, for which the T/C was 100 % of control (dose: 100.0 mg/kg/injection, schedule: Q04DX003 (ip), vehicle: saline with Tween-80); 120 % of control (dose: 200.0 mg/kg/injection, schedule: Q04DX003 (ip), vehicle: saline with Tween-80); 109 % of control (dose: 264.0 mg/kg/injection, schedule: Q04DX003 (ip), vehicle: saline with Tween-80); 113 % of control (dose: 400.0 mg/kg/injection, schedule: Q04DX003 (ip), vehicle: saline with Tween-80); 154 % of control (dose: 600.0 mg/kg/injection, schedule: Q04DX003 (ip), vehicle: saline with Tween-80).
For the compound `CC1=NN(C)C(=O)C1`, the T/C runs as follows: (dose: 50.0 mg/kg/injection, schedule: Q04DX003 (ip), vehicle: saline) 102 % of control; (dose: 100.0 mg/kg/injection, schedule: Q04DX003 (ip), vehicle: saline) 101 % of control; (dose: 200.0 mg/kg/injection, schedule: Q04DX003 (ip), vehicle: saline) 104 % of control; (dose: 400.0 mg/kg/injection, schedule: Q04DX003 (ip), vehicle: saline) 111 % of control.
On to `COC(=O)c1c(OC)c(Cl)c2cc3c(c(O)c2c1C)C(=O)[C@@]1(O)C(=O)C=C(OC)[C@H](O)[C@@]1(O)C3=O`, for which the T/C is 103 % of control (dose: 11.0 mg/kg/injection, schedule: Q01DX005 (ip), vehicle: saline with Tween-80); 105 % of control (dose: 22.0 mg/kg/injection, schedule: Q01DX005 (ip), vehicle: saline with Tween-80); 89 % of control (dose: 44.0 mg/kg/injection, schedule: Q01DX005 (ip), vehicle: saline with Tween-80); 94 % of control (dose: 88.0 mg/kg/injection, schedule: Q01DX005 (ip), vehicle: saline with Tween-80); 99 % of control (dose: 176.0 mg/kg/injection, schedule: Q01DX005 (ip), vehicle: saline with Tween-80).
For `OCC1OC(/C(N=Nc2ccccc2)=N\Nc2ccccc2)C(O)C1O` (configuration not stated), the T/C is, setting by setting: (dose: 6.25 mg/kg/injection, schedule: Q01DX005 (ip), vehicle: saline with Tween-80) 99 % of control; (dose: 12.5 mg/kg/injection, schedule: Q01DX005 (ip), vehicle: saline with Tween-80) 89 % of control; (dose: 200.0 mg/kg/injection, schedule: Q01DX005 (ip), vehicle: saline with Tween-80) 97 % of control.
On to `Nc1c(Cl)cc(C(=O)O)cc1Cl`, for which the T/C was 95 % of control (dose: 25.0 mg/kg/injection, schedule: Q01DX009 (ip), vehicle: saline with Tween-80); 90 % of control under setting [4]; 87 % of control under setting [5]; 100 % of control under setting [6].
On to `CN1C(=O)/C(=N\n2c(-c3ccccc3)nc3ccccc3c2=O)c2ccccc21`, for which the T/C was 91 % of control (dose: 25.0 mg/kg/injection, schedule: Q01DX005 (ip), vehicle: Klucel (hydroxypropylcellulose) (HPC)); 87 % of control and 88 % of control (dose: 50.0 mg/kg/injection, schedule: Q01DX005 (ip), vehicle: Klucel (hydroxypropylcellulose) (HPC)); 102 % of control and 89 % of control (dose: 100.0 mg/kg/injection, schedule: Q01DX005 (ip), vehicle: Klucel (hydroxypropylcellulose) (HPC)); 100 % of control (dose: 200.0 mg/kg/injection, schedule: Q01DX005 (ip), vehicle: Klucel (hydroxypropylcellulose) (HPC)).
As to `COc1ccc(-c2cc(-c3ccccc3)nc(-c3cccc([N+](=O)[O-])c3)c2)cc1`, the T/C under setting [1] was 100 % of control, the T/C under setting [2] is 124 % of control and the T/C under setting [3] is 97 % of control.
On to `CCC(C)C(N)C(=O)NCC(=O)O` (configuration not stated) (H-[ξI]-Gly-OH), for which the T/C reads like this: under setting [7], 96 % of control; under setting [8], 96 % of control; under setting [9], 96 % of control.
Take `COc1ccc(CSC2=C(C#N)C(=O)NC3(CCCCC3)S2)cc1`: the T/C by setting is: under setting [4], 112 % of control; under setting [5], 95 % of control; under setting [6], 97 % of control.
Turning to `COc1cc(Br)cc(OC)c1N=Cc1ccccc1`, the T/C is 102 % of control under setting [4], 97 % of control under setting [5] and 100 % of control under setting [6].
Turning to `CN(C)C(=S)c1cccc2ccccc12`, the T/C is, setting by setting: under setting [4], 86 % of control; under setting [5], 96 % of control; under setting [6], 114 % of control.
For the compound `NC(=S)c1ccc(Br)cc1`, the T/C by setting is: under setting [1], 97 % of control; under setting [2], 104 % of control.
With `CN(C)C(=O)C1CCC(=O)N1` (configuration not stated), the T/C runs as follows: under setting [7], 100 % of control; under setting [8], 109 % of control; under setting [9], 105 % of control.
`COC1=CC(=O)C2CC=CC3CC(=O)OC1C32C` (configuration not stated): the T/C by setting is: (dose: 100.0 mg/kg/injection, schedule: Q04DX002 (ip), vehicle: Klucel (hydroxypropylcellulose) (HPC)) 100 % of control; (dose: 200.0 mg/kg/injection, schedule: Q04DX002 (ip), vehicle: Klucel (hydroxypropylcellulose) (HPC)) 94 % of control; (dose: 400.0 mg/kg/injection, schedule: Q04DX002 (ip), vehicle: Klucel (hydroxypropylcellulose) (HPC)) 100 % of control.
As for `COc1ccc(CC2C(=O)OC(C)C(NC(=O)C(CC(C)C)N(C)C(=O)C3CCCN3C(=O)C(C)O)C(=O)NC(C(C)C)C(O)CC(=O)OC(C(C)C)C(=O)C(C)C(=O)NC(CC(C)C)C(=O)N3CCCC3C(=O)N2C)cc1` (configuration not stated), the T/C is, setting by setting: (dose: 37.5 micrograms/kg/injection, schedule: Q01DX005 (ip), vehicle: distilled water + alcohol) 122 % of control; (dose: 250.0 micrograms/kg/injection, schedule: Q01DX005 (ip), vehicle: distilled water + alcohol) 160 % of control; (dose: 500.0 micrograms/kg/injection, schedule: Q01DX005 (ip), vehicle: distilled water + alcohol) 166 % of control.
With `COC(=O)c1ccccc1NC(Cc1ccccc1)=NC(C)(C)C`, the T/C is, setting by setting: under setting [4], 86 % of control; under setting [5], 99 % of control.
